Laboratory results: paper PMC8068288, “Novel Thiol Containing Hybrid Antioxidant-Nitric Oxide Donor Small Molecules for Treatment of Glaucoma” (Antioxidants, 2021)

Tested on: NTM-5 cells
Assay: Superoxide scavenging ratio in NTM-5 cell supernatant (pyrogallol assay), with or without TBHP
Assay type: cell-based, human
Conditions: for AUC0-3h of superoxide scavenging ratio: NTM-5 cell supernatant, 18 h treatment, 0.1-1000 µM
Method: The ROS scavenging ratio was determined using a chemical assay where WST-1 was used as superoxide scavenger produced by pyrogallol following a reported protocol. Briefly, the superoxide anion radical scavenging activity was determined spectrophotometrically by measuring the formation of WST-1 formazan at 450 nm. WST-1 (40 µL, 50 µM) was added to the compounds (or corresponding solution) in a final volume of 160 µL in 50 mM ammonium hydrogen carbonate buffer, 0.5 mM EDTA, pH 9.3. Reaction was launched by adding 40 µL 1 mM pyrogallol. The operation was based on the 96-well microplate, and measurement was performed at different time points under 37 °C by Cytation5 Microplate Reader. Baicalein (1 mM) was used as positive control. Compounds SA-2, SA-9, and SA-10 were used in concentrations ranging from 1 µM, 10 µM, 100 µM, and 1000 µM. The superoxide anion radical scavenging ratio % was calculated according to the following formula:Scavenging ratio (%) = A0 − (A1 − A2)/A0 × 100% […]
The experiments were repeated twice with four technical replicates.
Figure 2 Superoxide scavenging ability of SA compounds in buffer and cells. (a) The % of superoxide scavenging response from 1 mM concentration of SA-2, SA-9, and SA-10 in pyrogallol (Pyr, 1 mM) induced superoxide induction assay at different time points in buffer. The AUC0–2.5 h for SA-2, SA-9, and SA-10 were 1592 ± 37.87, 1355 ± 42.62, and 2350 ± 69.26, respectively. (b) Comparison of the % ROS scavenging activity of SA-2, SA-9, and SA-10 with control after 15 min of treatment of pyrogallol. (c) The superoxide scavenging ratio (%) after 18 h treatment of 10 µM concentration of SA-2, SA-9, and SA-10 to NTM-5 cell supernatant using pyrogallol induced superoxide induction assay at different time points. (d) The superoxide scavenging ratio (%) of 10 µM concentration of SA-2, SA-9, and SA-10 in NTM-5 cell supernatant. The cells were previously treated with 5.5 mM of TBHP for 30 min followed by SA compounds and incubated for 18 h. Control is untreated cells. Three technical replicates were used for each experiment and all experiments were repeated 2 times. * p < 0.05, ** p < 0.005, *** p < 0.001, **** p < 0.0001, One-way ANOVA for (b), and two-way ANOVA for (c,d).
Figure S1: Superoxide scavenging ability of SA compounds in buffer and cells. a) The % of superoxide scavenging response from different concentrations of SA-2, SA-9 and SA-10 in pyrogallol (1 µM, 10 µM, 100 µM and 1,000 µM) induced superoxide induction assay at 15 minutes time point in buffer solution. The […]
superoxide scavenging ratio (%) after 18h treatment of different concentrations (0.1 µM, 1 µM, 10 µM, 100 µM and 1,000 µM) of SA-2, SA-9 and SA-10 to NTM-5 cell supernatant with or without TBHP (5.5 mM) using pyrogallol induced superoxide induction assay at 3h time point. Control is untreated cells. The cells were previously treated with 5.5 mM of TBHP for 30 minutes followed by SA compounds and TBHP and incubated for 18h. Control is untreated cells. e) The AUC0-3h for SA-2, SA-9 and SA-10 were 18902 ± 2714, […]
for each experiment and all experiments were repeated 2 times. N = 3.
(1 picture or pasted object on this page, not shown here)

SMILES: Cl.[NH-]c1c[n+](C2CCSCC2)no1 [SA-9, (3-(tetrahydro-2H-thiopyran-4-yl)-1,2,3-oxadiazol-3-ium-5-yl)amide hydrochloride]
- superoxide scavenging ability (ratio) (10 µM for 18 h, NTM-5 cells insulted with TBHP, TBHP alone 2.5%): 20–25%
- fold prevention of the decrease in superoxide scavenging ability vs TBHP alone (10 µM for 18 h, TBHP-treated NTM-5 cells): ~ 10 fold
- AUC0-3h of superoxide scavenging ratio (with TBHP 5.5 mM): 14120 ± 2023
- AUC0-3h of superoxide scavenging ratio (without TBHP): 21155 ± 1099
